The record followed here is patent US9056832B2, “Pyridine compounds and the users thereof” (Purdue Pharma L.P., priority 2010, dated 2015).

The target in one assay is human Nav1.7 (Homo sapiens (Human), UniProt Q15858). Briefly: FLIPR or FLIPR TETRA sodium dye assay with KCl and test article pre-incubation. Format: cell-based. The conditions noted are these: read-out: Nav1.7 IC50 (μM) ± SEM.
Sequence of human Nav1.7 (Q15858 other isoform, or with tags, fused parts or gaps): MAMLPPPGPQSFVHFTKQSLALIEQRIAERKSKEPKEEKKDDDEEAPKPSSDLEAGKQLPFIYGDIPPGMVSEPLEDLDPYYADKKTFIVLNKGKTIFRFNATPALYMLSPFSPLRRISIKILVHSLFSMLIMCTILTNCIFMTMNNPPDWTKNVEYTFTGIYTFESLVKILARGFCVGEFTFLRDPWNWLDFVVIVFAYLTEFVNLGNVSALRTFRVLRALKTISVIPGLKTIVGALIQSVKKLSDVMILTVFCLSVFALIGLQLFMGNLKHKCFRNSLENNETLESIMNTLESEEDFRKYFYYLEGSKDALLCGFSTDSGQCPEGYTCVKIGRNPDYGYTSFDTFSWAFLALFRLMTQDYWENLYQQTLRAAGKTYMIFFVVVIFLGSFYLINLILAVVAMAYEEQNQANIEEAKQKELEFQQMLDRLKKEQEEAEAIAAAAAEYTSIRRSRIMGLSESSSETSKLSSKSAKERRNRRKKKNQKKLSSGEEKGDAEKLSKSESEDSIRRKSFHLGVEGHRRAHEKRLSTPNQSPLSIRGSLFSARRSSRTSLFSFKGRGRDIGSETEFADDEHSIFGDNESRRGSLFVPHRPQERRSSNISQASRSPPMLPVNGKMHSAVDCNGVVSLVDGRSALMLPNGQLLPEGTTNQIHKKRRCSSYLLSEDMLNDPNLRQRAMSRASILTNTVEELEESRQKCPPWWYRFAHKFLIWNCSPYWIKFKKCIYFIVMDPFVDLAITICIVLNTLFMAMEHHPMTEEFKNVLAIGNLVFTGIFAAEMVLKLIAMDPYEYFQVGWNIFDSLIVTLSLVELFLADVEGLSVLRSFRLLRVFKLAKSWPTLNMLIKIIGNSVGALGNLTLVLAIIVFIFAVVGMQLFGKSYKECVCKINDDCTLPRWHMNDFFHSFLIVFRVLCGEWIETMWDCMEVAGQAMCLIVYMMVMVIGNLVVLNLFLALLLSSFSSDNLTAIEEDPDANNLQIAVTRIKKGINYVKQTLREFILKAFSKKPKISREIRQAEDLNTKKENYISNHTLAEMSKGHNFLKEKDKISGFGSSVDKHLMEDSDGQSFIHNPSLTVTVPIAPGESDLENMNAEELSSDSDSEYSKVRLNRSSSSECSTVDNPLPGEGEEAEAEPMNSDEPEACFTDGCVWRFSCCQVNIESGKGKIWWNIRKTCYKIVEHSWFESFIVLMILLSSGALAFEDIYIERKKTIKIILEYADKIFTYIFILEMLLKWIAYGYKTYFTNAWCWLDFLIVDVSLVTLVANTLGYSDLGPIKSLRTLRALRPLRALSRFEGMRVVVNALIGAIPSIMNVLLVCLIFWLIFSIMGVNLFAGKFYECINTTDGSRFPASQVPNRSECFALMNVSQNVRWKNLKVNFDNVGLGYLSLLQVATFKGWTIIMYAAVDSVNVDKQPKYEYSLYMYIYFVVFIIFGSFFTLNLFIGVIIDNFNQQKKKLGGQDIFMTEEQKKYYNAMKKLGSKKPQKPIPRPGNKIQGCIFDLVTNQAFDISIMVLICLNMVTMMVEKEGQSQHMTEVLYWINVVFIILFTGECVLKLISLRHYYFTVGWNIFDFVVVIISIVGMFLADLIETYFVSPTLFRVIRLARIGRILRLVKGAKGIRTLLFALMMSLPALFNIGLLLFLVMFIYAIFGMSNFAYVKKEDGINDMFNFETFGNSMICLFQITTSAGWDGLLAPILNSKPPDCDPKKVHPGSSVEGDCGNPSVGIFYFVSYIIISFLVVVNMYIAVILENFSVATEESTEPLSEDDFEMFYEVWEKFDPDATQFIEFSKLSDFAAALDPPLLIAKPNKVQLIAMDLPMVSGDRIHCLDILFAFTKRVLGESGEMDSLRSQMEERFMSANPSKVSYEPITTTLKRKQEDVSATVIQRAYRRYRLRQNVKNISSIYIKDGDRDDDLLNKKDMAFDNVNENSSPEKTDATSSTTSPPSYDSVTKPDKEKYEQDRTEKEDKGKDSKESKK
As usually defined, the IC50 is the concentration at which inhibition is half-maximal. Turning to `Cc1cc(C(=O)NCCN2CCCCC2)cc(-c2ccc(Oc3ccc(F)cc3)cc2)n1` [compound 107, 2-(4-(4-fluorophenoxy)phenyl)-6-methyl-N-(2-(piperidin-1-yl)ethyl) isonicotinamide], the half-inhibitory concentration (IC50) stood at 0.4 ± 0.12 µM.

For the compound `N#Cc1cc(NCCCn2ccnc2)cc(-c2ccc(Oc3ccc(F)cc3)cc2)n1` [compound 110, 4-((3-(1H-imidazol)-1-yl)propyl)amino)-6-(4-(4-fluorophenoxy) phenylpicolinonitrile], the IC50 stood at 0.62 ± 0.08 µM.

Regarding `OC[C@H](O)c1cc(NCCN2CCOCC2)cc(-c2ccc(Oc3ccc(F)cc3)cc2)n1` [compound 111], the concentration for half-maximal inhibition (IC50) was found to be 0.71 ± 0.13 µM.

`CN(c1ccccc1)c1cc(C(=O)O)nc(-c2ccc(Oc3ccc(F)cc3)cc2)c1` [compound 114, 6-(4-(4-fluorophenoxy)phenyl)-4-(methyl(phenyl)amino)picolinic acid]: the half-maximal inhibitory concentration (IC50) was 0.68 ± 0.6 µM.

In the case of `CN(c1ccc(C(=O)O)cc1)c1cc(C(=O)O)nc(-c2ccc(Oc3ccc(F)cc3)cc2)c1` [compound 117, 4-((4-carboxyphenyl)(methy)amino)-6-(4-(4-fluorophenoxy)phenyl) picolinic acid], the half-maximal inhibitory concentration (IC50) is over 20 µM.

Regarding `N#CCCN(c1ccccc1)c1cc(C(=O)O)nc(-c2ccc(Oc3ccc(F)cc3)cc2)c1` [compound 118, 4-((2-cyanoethyl) (phenyl)amino)-6-(4-(4fluorophenoxy)phenyl)picolinic acid], the IC50 was 2.5 ± 0.3 µM.

Turning to `CN(c1ccc(C(=O)O)cc1)c1cc(-c2ccc(Oc3ccc(F)cc3)cc2)cc(C(=O)O)n1` [compound 120, 6-((4-carboxyphenyl) (methy)amino)-4-(4-(4-fluorophenoxy)phenyl) picolinic acid], the IC50 stood at 9.3 ± 0.54 µM.

For `NC(=O)c1cc(C2=CCNCC2)cc(-c2ccc(Oc3ccc(F)cc3)cc2)n1` [compound 122, 6-(4-(4-fluorophenoxy)phenyl)-1′,2′,3′,6′-tetrahydro-[4,4'-bipyridine]-2-carboxamide], the IC50 is 0.14 ± 0.03 µM.

Consider `O=S(=O)(Nc1ccc(F)cc1)c1ccc(-c2cccc([C@H](O)CO)n2)cc1` [compound 124, (S)-4-(6-(1,2-dihydroxyethyl)pyridin-2-yl)-N-(4-fluorophenyl) benzenesulfonamide], for which the IC50 turned out to be 2.5 ± 0.34 µM.

Take `N#Cc1ccc(Oc2ccc(-c3cc([C@@H](O)CO)cc(C(N)=O)n3)cc2)cc1C(F)(F)F` [compound 127, (R)-6-(4-(4-cyano-3-(trifluoromethyl)phenoxy)phenyl)-4-(1,2-dihydroxyethyl) picolinamide]: the half-inhibitory concentration (IC50) came out at 1.13 ± 0.11 µM.

Still in this assay, the particulars now being: recombinant human Nav1.7 in HEK293 cells; CoroNa Green sodium dye; veratridine + scorpion venom; read-out: Nav1.7 IC50 (μM) ± SEM.
As to `NC(=O)c1cc(-c2ccc(Oc3ccc(F)cc3)cc2)nc([C@@H](O)CO)c1` [compound 89, (R)-2-(1,2-dihydroxyethyl)-6-(4-(4-fluorophenoxy)phenyl) isonicotinamide], the IC50 turned out to be 7.13 ± 0.5 µM.

As for `CN(c1ccc(C(=O)O)cc1)c1cc(C(N)=O)nc(-c2ccc(Oc3ccc(F)cc3)cc2)c1` [compound 91, 4-((2-carbamoyl-6-(4-(4-fluorophenoxy)phenyl)pyridin-4-yl)(methyl)amino)benzoic acid], the half-maximal inhibitory concentration (IC50) is over 20 µM.

With `O=C(O)CN(c1ccccc1)c1cc(C(=O)O)nc(-c2ccc(Oc3ccc(F)cc3)cc2)c1` [compound 92, 4-((carboxymethyl) (phenyl)amino)-6-(4-(4-fluorophenoxy)phenyl)picolinic acid], the 50% inhibitory concentration (IC50) was 3.83 ± 0.64 µM.

As to `O=C(O)c1cc(-n2cc(C(=O)O)c3ccccc32)cc(-c2ccc(Oc3ccc(F)cc3)cc2)n1` [compound 93, 1-(2-carboxy-6-(4-(4-fluorophenoxy)phenyl)pyridin-4-yl)-1H-indole-3-carboxylic acid], the IC50 was over 20 µM.

Regarding `N#CCCN(c1ccccc1)c1cc(-c2ccc(Oc3ccc(F)cc3)cc2)cc(C(=O)O)n1` [compound 94, 6-((2-cyanoethyl) (phenyl)amino)-4-(4-(4-fluorophenoxy)phenyl)picolinic acid], the IC50 is 2.17 ± 0.66 µM.

In the case of `NC(=O)c1cc(-c2ccc(Oc3ccc(F)cc3)cc2)cc([C@H](O)CO)n1` [compound 95, (S)-6-(1,2-dihydroxyethyl)-4-(4-(4-fluorophenoxy)phenyl)picolinamide], the half-maximal inhibitory concentration (IC50) was 0.17 ± 0.08 µM.

As for `NC(=O)c1cc(-c2ccc(Oc3ccc(F)cc3)cc2)cc([C@@H](O)CO)n1` [compound 96, (R)-6-(1,2-dihydroxyethyl)-4-(4-(4-fluorophenoxy)phenyl)picolinamide], the IC50 was determined as 0.12 ± 0.03 µM.

Take `NC(=O)CN(c1ccccc1)c1cc(-c2ccc(Oc3ccc(F)cc3)cc2)cc(C(N)=O)n1` [compound 98, 6-((2-amino-2-oxoethyl)(phenyl)amino)-4-(4-(4-fluorophenoxy)phenyl)picolinamide]: the IC50 was 0.22 ± 0.07 µM.

`N#Cc1cccc2c1ccn2-c1cc(C(N)=O)nc(-c2ccc(Oc3ccc(F)cc3)cc2)c1` [compound 99, 4-(4-cyano-1H-indol-1-yl)-6-(4-(4-fluorophenoxy)phenyl) picolinamide]: the IC50 came to 0.1 ± 0.03 µM.

`N#Cc1cccc2c1ccn2-c1cc(-c2ccc(Oc3ccc(F)cc3)cc2)cc(C(N)=O)n1` [compound 100, 6-(4-cyano-1H-indol-1-yl)-4-(4-(4-fluorophenoxy)phenyl) picolinamide]: the IC50 is 0.27 ± 0.03 µM.

Take `N#Cc1cccc2c1ccn2-c1cc(C(=O)O)nc(-c2ccc(Oc3ccc(F)cc3)cc2)c1` [compound 101, 4-(4-cyano-1H-indol-1-yl)-6-(4-(4-fluorophenoxy)phenyl) picolinic acid]: the IC50 was 0.27 ± 0.08 µM.

On to `NC(=O)c1cc(CN2CCN(CC(=O)O)CC2)cc(-c2ccc(Oc3ccc(F)cc3)cc2)n1` [compound 104, 2-(4-((2-carbamoyl-6-(4-(4-fluorophenoxy)phenyl)pyridine-4-yl)methyl)piperazin-1-yl) acetic acid], for which the IC50 is 2.7 ± 0.26 µM.

As for `O=C1NCCN1CCNCc1ccnc(-c2ccc(Oc3ccc(F)cc3)cc2)c1` [compound 105, 1-(2-(((2-(4-(4-fluorophenoxy)phenyl)pyridin-4-yl)methyl)amino)ethyl) imidazolidin-2-one], the IC50 stood at 0.53 ± 0.08 µM.

For `N#Cc1cc(CNCCN2CCNC2=O)cc(-c2ccc(Oc3ccc(F)cc3)cc2)n1` [compound 106, 6-(4-(4-fluorophenoxy)phenyl)-4-(((2-(2-oxoimidazolidin-1-yl)ethyl)amino)methyl) picolinonitrile], the IC50 stood at 2.01 ± 0.44 µM.

Consider `NC(=O)CN1CCN(c2cc(Cl)nc(-c3ccc(Oc4ccc(F)cc4)cc3)c2)CC1` [compound 109, 2-(4-(2-chloro-6-(4-(4-fluorophenoxy)phenyl)pyridine-4-yl)piperazin-1-yl) acetamide], for which the IC50 amounted to 3.77 ± 0.56 µM.

For `N#Cc1cc([C@H](O)CO)cc(-c2ccc(Oc3ccc(F)cc3)cc2)n1` [compound 112, (S)-4-(1,2-dihydroxyethyl)-6-(4-(4-fluorophenoxy)phenyl)picolinonitrile], the IC50 was 2.12 ± 0.54 µM.

For the compound `CN(c1ccccc1)c1cc(-c2ccc(Oc3ccc(F)cc3)cc2)cc(C(N)=O)n1` [compound 113, 4-(4-(4-fluorophenoxy)phenyl)-6-(methyl(phenyl)amino)picolinamide], the IC50 is 0.36 ± 0.8 µM.

Turning to `N#CCCN(c1ccccc1)c1cc(-c2ccc(Oc3ccc(F)cc3)cc2)cc(C(N)=O)n1` [compound 115, 6-((2-cyanoethyl) (phenyl)amino)-4-(4-(4-fluorophenoxy)phenyl)picolinamide], the IC50 was determined as 0.08 ± 0.03 µM.

Regarding `CN(c1ccc(C(=O)O)cc1)c1cc(-c2ccc(Oc3ccc(F)cc3)cc2)cc(C(N)=O)n1` [compound 116, 4-((6-carbamoyl-4-(4-(4-fluorophenoxy)phenyl)pyridin-2-yl) (methyl)amino)benzoic acid], the IC50 worked out at 2.71 ± 0.73 µM.

Consider `CN(c1ccccc1)c1cc(-c2ccc(Oc3ccc(F)cc3)cc2)cc(C(=O)O)n1` [compound 119, 4-(4-(4-fluorophenoxy)phenyl)-6-(methyl (phenyl)amino) picolinic acid], for which the IC50 is 2.46 ± 0.8 µM.

As for `O=C(O)CN(c1ccccc1)c1cc(-c2ccc(Oc3ccc(F)cc3)cc2)cc(C(=O)O)n1` [compound 121, 6-((carboxymethyl) (phenyl)amino)-4-(4-(4-fluorophenoxy)phenyl)picolinic acid], the IC50 is 6.24 ± 0.81 µM.

With `NC(=O)c1cc([C@@H](O)CO)cc(-c2ccc(Oc3cc(Cl)ccc3F)cc2)n1` [compound 123, (R)-6-(4-(5-chloro-2-fluorophenoxy)phenyl)-4-(1,2-dihydroxyethyl) picolinamide], the IC50 turned out to be 0.17 ± 0.03 µM.

On to `O=C(NC(CO)CO)c1cc(-c2ccc(Oc3ccc(F)cc3)cc2)cc(Cl)n1` [compound 125, 6-chloro-N-(1,3-dihydroxypropan-2-yl)-4-(4-(4-fluorophenoxy)phenyl)picolinamide], for which the IC50 came out at 0.77 ± 0.13 µM.

For the compound `N#Cc1cccc2c1ccn2-c1cc(-c2ccc(Oc3ccc(F)cc3)cc2)cc(C(=O)O)n1` [compound 126, 6-(4-cyano-1H-indol-1-yl)-4-(4-(4-fluorophenoxy)phenyl) picolinic acid], the IC50 is 1.05 ± 0.13 µM.

Turning to `NC(=O)c1cc(-c2ccc(Oc3ccc(F)cc3)cc2)cc(NC(CO)CO)n1` [compound 128, 6-((1,3-dihydroxypropan-2-yl)amino)-4-(4-(4-fluorophenoxy)phenyl) picolinamide], the IC50 was found to be 1.29 ± 0.17 µM.

On to `C[C@H](O)[C@@H](O)c1cc(C(N)=O)nc(-c2ccc(Oc3ccc(F)cc3)cc2)c1` [compound 129, 4-((1S,2S)-1,2-dihydroxypropyl)-6-(4-(4-fluorophenoxy)phenyl)picolinamide], for which the IC50 turned out to be 1.74 ± 0.35 µM.

For `O=C(O)c1ccc2ccn(-c3cc(C(=O)O)nc(-c4ccc(Oc5ccc(F)cc5)cc4)c3)c2c1` [compound 130, 1-(2-carboxy-6-(4-(4-fluorophenoxy)phenyl)pyridin-4-yl)-1H-indole-6-carboxylic acid], the IC50 was 2.47 ± 0.73 µM.

Consider `C[C@@H](O)[C@H](O)c1cc(C(N)=O)nc(-c2ccc(Oc3ccc(F)cc3)cc2)c1` [compound 131, 4-((1R,2R)-1,2-dihydroxypropyl)-6-(4-(4-fluorophenoxy)phenyl)picolinamide], for which the IC50 was determined as 2.78 ± 0.46 µM.
